Laboratory results reported in US8003785B2 (Takeda Pharmaceutical Company Limited, priority 2008, dated 2011).

Molecular target: T1, PLK1 (Homo sapiens, UniProt P53350)
T1 construct: Full-length, active GST-PLK1 is purified from Sf9 insect cells; made in house; host or cells: Sf9 insect cells
Assay: Biochemical Characterization Assay: HTRF kinase assay, GST-PLK1 phosphorylation of GST-p53
Conditions: GST-PLK1, GST-p53 substrate
Procedure, shortened: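 HTRF read-out of p53 phosphorylation: after EDTA stop, anti-phospho-p53 antibody bound 30 min at 37 °C in HEPES pH 7 buffer, with Eu-anti-rabbit/APC-anti-GST detection. Kinase step used full-length Sf9-expressed GST-PLK1 (3 ug/mL) and E. coli GST-p53 substrate, 35 min at 37 °C.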

T1 sequence (P53350 whole entry): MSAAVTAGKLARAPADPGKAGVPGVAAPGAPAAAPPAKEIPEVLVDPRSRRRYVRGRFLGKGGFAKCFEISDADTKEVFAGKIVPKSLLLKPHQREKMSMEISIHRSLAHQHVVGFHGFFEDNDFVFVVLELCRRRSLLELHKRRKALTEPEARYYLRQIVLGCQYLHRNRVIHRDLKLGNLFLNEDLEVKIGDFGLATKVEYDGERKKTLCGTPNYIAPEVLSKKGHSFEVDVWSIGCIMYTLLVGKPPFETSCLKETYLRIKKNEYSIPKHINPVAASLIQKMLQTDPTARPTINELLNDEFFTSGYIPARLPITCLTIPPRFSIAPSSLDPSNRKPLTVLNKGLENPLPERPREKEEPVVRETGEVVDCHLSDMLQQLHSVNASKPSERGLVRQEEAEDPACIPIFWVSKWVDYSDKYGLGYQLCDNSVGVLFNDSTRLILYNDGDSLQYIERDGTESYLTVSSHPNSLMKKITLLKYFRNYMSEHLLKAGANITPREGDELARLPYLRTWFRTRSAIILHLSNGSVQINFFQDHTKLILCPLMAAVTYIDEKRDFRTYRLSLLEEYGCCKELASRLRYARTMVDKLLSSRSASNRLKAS

Compound	IC50	IC50 (ATP)
COc1cc(C(=O)O)ccc1Nc1ncc2c(n1)N([C@@H]1C[C@H]1c1ccccc1)CC(F)(F)C(=O)N2C (relative stereo) [Example I-287, 4-[7,7-difluoro-5-methyl-6-oxo-9-(trans-2-phenyl-cyclopropyl)-6,7,8,9-tetrahydro-5H-pyrimido[4,5-b][1,4]diazepin-2-ylamino]-3-methoxy-benzoic acid]	> 5000 nM	–
CCOc1cc(C(=O)NCCN(C)C)ccc1Nc1ncc2c(n1)N(C1CCCC1)CC(F)(F)C(=O)N2C [Example I-218, 4-(9-cyclopentyl-7,7-difluoro-5-methyl-6-oxo-6,7,8,9-tetrahydro-5H-pyrimido[4,5-b][1,4]diazepin-2-ylamino)-N-(2-dimethylamino-ethyl)-3-ethoxy-benzamide]	1 to 50 nM	–
COc1cc(C(=O)NC2CCNCC2)c(F)cc1Nc1ncc2c(n1)N(C1CCCC1)CC(F)(F)C(=O)N2C [Example I-178, 4-(9-cyclopentyl-7,7-difluoro-5-methyl-6-oxo-6,7,8,9-tetrahydro-5H-pyrimido[4,5-b][1,4]diazepin-2-ylamino)-2-fluoro-5-methoxy-N-piperidin-4-yl-benzamide]	1 to 50 nM	–
COc1cc(C(N)=O)ccc1Nc1ncc2c(n1)N(C1CCCCC1)CC(F)(F)C(=O)N2C [Example I-248, 4-(9-cyclohexyl-7,7-difluoro-5-methyl-6-oxo-6,7,8,9-tetrahydro-5H-pyrimido[4,5-b][1,4]diazepin-2-ylamino)-3-methoxy-benzamide]	1 to 50 nM	–
COc1cc(C(=O)NC2CCN(CC(F)F)CC2)ccc1Nc1ncc2c(n1)N(C1CCCCC1)CC(F)(F)C(=O)N2C [Example I-266, 4-(9-cyclohexyl-7,7-difluoro-5-methyl-6-oxo-6,7,8,9-tetrahydro-5H-pyrimido[4,5-b][1,4]diazepin-2-ylamino)-N-[1-(2,2-difluoro-ethyl)-piperidin-4-yl]-3-methoxy-benzamide]	1 to 50 nM	–
CCN1C(=O)C(F)(F)CN(C2CCCC2)c2nc(Nc3ccc(C(=O)NC4CCOCC4)cc3OC)ncc21 [Example I-161, 4-(9-cyclopentyl-5-ethyl-7,7-difluoro-6-oxo-6,7,8,9-tetrahydro-5H-pyrimido[4,5-b][1,4]diazepin-2-ylamino)-3-methoxy-N-(tetrahydro-pyran-4-yl)-benzamide]	500 to 5000 nM	–
COc1cc(C(=O)NC2CCOCC2)ccc1Nc1ncc2c(n1)N(CCc1ccccc1)CC(F)(F)C(=O)N2C [Example I-280, 4-(7,7-difluoro-5-methyl-6-oxo-9-phenethyl-6,7,8,9-tetrahydro-5H-pyrimido[4,5-b][1,4]diazepin-2-ylamino)-3-methoxy-N-(tetrahydro-pyran-4-yl)-benzamide]	51 to 500 nM	–
CCCN1C(=O)C(F)(F)CN(C2CCCC2)c2nc(Nc3ccc(C(=O)NC)cc3OC)ncc21 [Example I-164, 4-(9-cyclopentyl-7,7-difluoro-6-oxo-5-propyl-6,7,8,9-tetrahydro-5H-pyrimido[4,5-b][1,4]diazepin-2-ylamino)-3-methoxy-N-methyl-benzamide]	500 to 5000 nM	–
CCc1cc(C(=O)NC2CCOCC2)ccc1Nc1ncc2c(n1)N(C1CCCC1)CC(F)(F)C(=O)N2C [Example I-197, 4-(9-cyclopentyl-7,7-difluoro-5-methyl-6-oxo-6,7,8,9-tetrahydro-5H-pyrimido[4,5-b][1,4]diazepin-2-ylamino)-3-ethyl-N-(tetrahydro-pyran-4-yl)-benzamide]	1 to 50 nM	–
CCc1cc(C(=O)NC2CCN(C)CC2)ccc1Nc1ncc2c(n1)N(C1CCCC1)CC(F)(F)C(=O)N2C [Example I-195, 4-(9-cyclopentyl-7,7-difluoro-5-methyl-6-oxo-6,7,8,9-tetrahydro-5H-pyrimido[4,5-b][1,4]diazepin-2-ylamino)-3-ethyl-N-(1-methyl-piperidin-4-yl)-benzamide]	1 to 50 nM	–
CCN1C(=O)C(F)(F)CN(C2CCCC2)c2nc(Nc3ccc(C(=O)NCCCN(C)C)cc3)ncc21 [Example I-142, 4-(9-cyclopentyl-5-ethyl-7,7-difluoro-6-oxo-6,7,8,9-tetrahydro-5H-pyrimido[4,5-b][1,4]diazepin-2-yl-amino)-N-(3-dimethyl-amino-propyl)-benzamide]	–	500 to 5000 nM
COc1cc(C(N)=O)c(F)cc1Nc1ncc2c(n1)N(C1CCCC1)CC(F)(F)C(=O)N2C [Example I-170, 4-(9-cyclopentyl-7,7-difluoro-5-methyl-6-oxo-6,7,8,9-tetrahydro-5H-pyrimido[4,5-b][1,4]diazepin-2-ylamino)-2-fluoro-5-methoxy-benzamide]	1 to 50 nM	–
COc1cc(C(=O)NCCCN2CCN(C(=O)OC(C)(C)C)CC2)ccc1Nc1ncc2c(n1)N(C1CCCC1)CC(F)(F)C(=O)N2C [Example I-94, 4-{3-[4-(9-cyclopentyl-7,7-difluoro-5-methyl-6-oxo-6,7,8,9-tetrahydro-5H-pyrimido[4,5-b][1,4]diazepin-2-ylamino)-3-methoxy-benzoylamino]-propyl}-piperazine-1-carboxylic acid tert-butyl ester]	–	1 to 50 nM
COc1cc(C(=O)NC2CCOCC2)ccc1Nc1ncc2c(n1)N(C1CCCCC1)CC(F)(F)C(=O)N2C [Example I-252, 4-(9-cyclohexyl-7,7-difluoro-5-methyl-6-oxo-6,7,8,9-tetrahydro-5H-pyrimido[4,5-b][1,4]diazepin-2-ylamino)-3-methoxy-N-(tetrahydro-pyran-4-yl)-benzamide]	1 to 50 nM	–
COc1cc(C(=O)NC2CCN(C(C)=O)CC2)ccc1Nc1ncc2c(n1)N(C1CCCC1)CC(F)(F)C(=O)N2C [Example I-102, N-(1-acetyl-piperidin-4-yl)-4-(9-cyclopentyl-7,7-difluoro-5-methyl-6-oxo-6,7,8,9-tetrahydro-5H-pyrimido[4,5-b][1,4]diazepin-2-ylamino)-3-methoxy-benzamide]	–	1 to 50 nM
COc1cc(C(=O)N[C@@H]2CN3CCC2CC3)ccc1Nc1ncc2c(n1)N(C1CCCC1)CC(F)(F)C(=O)N2C [Example I-107, N—(S)-1-aza-bicyclo[2.2.2]oct-3-yl-4-(9-cyclopentyl-7,7-difluoro-5-methyl-6-oxo-6,7,8,9-tetrahydro-5H-pyrimido[4,5-b][1,4]diazepin-2-ylamino)-3-methoxy-benzamide]	–	1 to 50 nM
CN1C(=O)C(F)(F)CN(C2CCCC2)c2nc(Nc3ccc(C(=O)NC4CCNCC4)cc3C(F)(F)F)ncc21 [Example I-212, 4-(9-cyclopentyl-7,7-difluoro-5-methyl-6-oxo-6,7,8,9-tetrahydro-5H-pyrimido[4,5-b][1,4]diazepin-2-ylamino)-N-piperidin-4-yl-3-trifluoromethyl-benzamide]	1 to 50 nM	–
CCN1C(=O)C(F)(F)CN(C2CCCC2)c2nc(Nc3ccc(C(=O)NC4CCN(C)CC4)cc3OC)ncc21 [Example I-159, 4-(9-cyclopentyl-5-ethyl-7,7-difluoro-6-oxo-6,7,8,9-tetrahydro-5H-pyrimido[4,5-b][1,4]diazepin-2-ylamino)-3-methoxy-N-(1-methyl-piperidin-4-yl)-benzamide]	51 to 500 nM	–
COc1cc(C(=O)NCCN(C)C)c(F)cc1Nc1ncc2c(n1)N(C1CCCC1)CC(F)(F)C(=O)N2C [Example I-174, 4-(9-cyclopentyl-7,7-difluoro-5-methyl-6-oxo-6,7,8,9-tetra-hydro-5H-pyrimido[4,5-b][1,4]diazepin-2-ylamino)-N-(3-dimethylamino-ethyl)-2-fluoro-5-methoxy-benzamide]	1 to 50 nM	–
COc1cc(C(=O)N[C@@H]2CCN(C(=O)OCc3ccccc3)C[C@H]2OC)ccc1Nc1ncc2c(n1)N(C1CCCC1)CC(F)(F)C(=O)N2C (racemic) [Example I-55, rac-(3R,4R)-4-[4-(9-cyclopentyl-7,7-difluoro-5-methyl-6-oxo-6,7,8,9-tetrahydro-5H-pyrimido[4,5-b][1,4]diazepin-2-ylamino)-3-methoxy-benzoylamino]-3-methoxy-piperidine-1-carboxylic acid benzyl ester]	–	51 to 500 nM
CN(C)CCCNC(=O)c1ccc(Nc2ncc3c(n2)N(C2CCCC2)CC(F)(F)C(=O)N3C)c(C(F)(F)F)c1 [Example I-209, 4-(9-cyclopentyl-7,7-difluoro-5-methyl-6-oxo-6,7,8,9-tetrahydro-5H-pyrimido[4,5-b][1,4]diazepin-2-ylamino)-N-(3-dimethylamino-propyl)-3-trifluoromethyl-benzamide]	1 to 50 nM	–
COc1cc(C(=O)NCC2CCNC2)ccc1Nc1ncc2c(n1)N(C1CCCC1)CC(F)(F)C(=O)N2C (stereo not shown) [Example I-93, 4-(9-cyclopentyl-7,7-difluoro-5-methyl-6-oxo-6,7,8,9-tetrahydro-5H-pyrimido[4,5b][1,4]diazepin-2-ylamino)-3-methoxy-N-pyrrolidin-3-ylmethyl-benzamide]	–	1 to 50 nM
COc1cc(C(=O)NCc2ccccc2)ccc1Nc1ncc2c(n1)N(C1CCCC1)CC(F)(F)C(=O)N2C [Example I-35, N-benzyl-4-(9-cyclopentyl-7,7-difluoro-5-methyl-6-oxo-6,7,8,9-tetrahydro-5H-pyrimido[4,5-b][1,4]diazepin-2-ylamino)-3-methoxy-benzamide]	–	51 to 500 nM
COc1cc(C(=O)NCCCN2CCC(O)CC2)ccc1Nc1ncc2c(n1)N(C1CCCC1)CC(F)(F)C(=O)N2C [Example I-105, 4-(9-cyclopentyl-7,7-difluoro-5-methyl-6-oxo-6,7,8,9-tetrahydro-5H-pyrimido[4,5-b][1,4]diazepin-2-ylamino)-N-[3-(4-hydroxy-piperidin-1-yl)-propyl]-3-methoxy-benzamide]	–	1 to 50 nM
CN(C)CCCNC(=O)c1ccc(Nc2ncc3c(n2)N(C2CCC2)CC(F)(F)C(=O)N3C)cc1 [Example I-19, 4-(9-cyclobutyl-7,7-difluoro-5-methyl-6-oxo-6,7,8,9-tetrahydro-5H-pyrimido[4,5-b][1,4]diazepin-2-ylamino)-N-(3-dimethylamino-propyl)-benzamide]	–	1 to 50 nM
